Results as given in the METLIN SMRT retention time set (Domingo-Almenara et al. 2019).

Assay: gradient 5% acetonitrile 3 min, to 50% in 2 min, to 85% in 15 min, held 3 min, 100 µL/min
Conditions: column: Zorbax Extend-C18 2.1 x 50 mm; eluents: water / acetonitrile, 0.1% formic acid
Summary of the method: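 Retention time was recorded from adduct peaks, which were picked computationally and each inspected manually. Pure standards ran in mixtures of ~100 molecules on HPLC coupled to a quadrupole time-of-flight mass spectrometer, in positive and negative ionization mode, through a Zorbax Extend-C18 column (2.1 × 50 mm, 1.8 μm) at 100 μL/min. Eluents were water and acetonitrile, each with 0.1% formic acid.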

RP-LC retention time [s] | SMILES
658 | O=C(NCc1ccc(F)cc1)NC1CCN(C(=O)N2C[C@H]3C[C@H](C2)[C@H]2CCCC(=O)N2C3)CC1
608 | Nc1ccc(OC(=O)Nc2ccc(O)cc2)cc1
846 | COc1cc(CNC(=O)c2nnc(-c3ccc(S(=O)(=O)N(C)C)cc3)o2)cc(OC)c1
650 | COc1ccc(-c2nnc(CC(=O)NCC3CCCO3)o2)cc1 (stereo not drawn)
683 | CCOC(=O)c1c(C)[nH]c(C(=O)N2CCC(CC(=O)NC(C)C)CC2)c1C
968 | CCS(=O)(=O)N1CC(=O)N(c2ccc(C)c(F)c2)C(C)(C(=O)NC2CCCCCC2)C1 (stereo not drawn)
1080 | O=C(NCCc1ccccc1)N1CCN(c2nc3cccnc3n(Cc3ccccc3)c2=O)CC1
730 | Cc1ccccc1S(=O)(=O)N1CCC2(CC1)NCCN=C2NCc1ccc(F)cc1
1020 | Cc1sc(-c2nnc(C3CCC3)o2)cc1NC(=O)Cc1ccc(F)cc1
888 | CSc1cccc(NC(=O)N2CCC[C@@H]2C(=O)NCc2csc(-c3ccccc3)n2)c1
536 | Cc1cc(N(C)C)n2nc(CN3CCCC(C)C3)nc2n1 (stereo not drawn)
703 | CCNC(=O)C1CCCN(c2nc3ncn(CC(=O)Nc4c(C)cccc4CC)c(=O)c3s2)C1 (stereo not drawn)
1050 | CCc1nc2cc(-c3noc(CCc4c[nH]c5ccccc45)n3)ccc2o1
756 | CCCNC(=O)C1CCN(Cc2cc3ccccc3n2Cc2cccc(Cl)c2)CC1
1010 | COc1cc(OC)cc(-c2nc(-c3cccc(-c4ccn[nH]4)c3)no2)c1
743 | CCN1C(=O)C(CC(=O)NC2CCCCC2)Sc2ncccc21 (stereo not drawn)
796 | Cn1cccc1CN(C(=O)C1CCC1)C1CC1
956 | Cc1cc(Cl)ccc1OCc1nc(-c2ccc3c(c2)ncn3CCC(=O)N2CCCCC2)no1
765 | Cc1cc(C)cc(C(=O)N2CCN(c3nc(C)cc(N4CCCCC4)n3)CC2)c1
717 | O=C(O)CCCNS(=O)(=O)c1ccc2ccccc2c1
742 | CCCn1c(-c2cccc(C(=O)NCc3ccco3)c2)nc2cccnc21
676 | Cc1noc(C)c1CC(=O)N1CCOc2ccc(NC(=O)C3CC3)cc2C1

RP-LC retention time [s] | SMILES
838 | O=C(NC1CCCCC1)c1cccc(Nc2c(-c3ccccc3)nc3cnccn23)c1
718 | Cc1cc(C)n(-c2cc(NCCNC(=O)c3ccc(F)cc3F)ncn2)n1
677 | Cn1c(N2CCN(C(=O)Cc3ccc(Cl)cc3)CC2)cc(=O)n(C)c1=O
874 | CSc1ccc(NC(=O)N2CCc3c(c(-c4nc(C5CC5)no4)nn3C)C2)cc1
868 | Cc1cc2nn(CC(=O)Nc3ccc(C)c(C)c3)c(=O)n2c(-c2ccccc2)n1
975 | CC(C)Cn1cc(CCNC(=O)Nc2ccc(Br)cc2F)c2cccnc21
1410 | O=C(CCC1CCCC1)N1CCc2c([nH]c3ccccc23)C1c1ccc(F)cc1 (stereo not drawn)
559 | Cc1ccc(Oc2cccc(C(N)=O)c2)nn1
816 | O=C(NCCc1csc(-c2ccccc2)n1)C1CCN(C(=O)c2ccc(F)c(F)c2)CC1
787 | CN(C)C(=O)c1csc(S(=O)(=O)N2CCC(C(=O)NCc3ccc(Cl)cc3)CC2)c1
618 | CN(C)C(=O)c1ccc2c(c1)nc(CN(C)C(=O)Nc1ccccc1Br)n2C
878 | COC(=O)c1cc2c(=O)n(-c3cccc(Cl)c3)ccc2nc1C
657 | O=C(Nc1ccc(F)cc1)c1nnc(CSCC(=O)N2CCN(c3ccccn3)CC2)s1
984 | COc1ccc(-c2noc(C3CCCN3C(=O)c3sccc3C)n2)cc1 (stereo not drawn)
625 | Cn1nc(-c2ccccc2)nc1C1CN(C(=O)NCC2CCCO2)C1 (stereo not drawn)
935 | CCOC(=O)Oc1c(OC)cc(C(=O)O[C@@H]2C[C@@H]3CN4CCc5c([nH]c6cc(OC)ccc56)[C@H]4C[C@@H]3[C@H](C(=O)OC)[C@H]2OC)cc1OC
923 | CCOc1ccc(C(C)NC(=O)c2nnc(-c3ccc(S(=O)(=O)N(C)C)cc3)o2)cc1 (stereo not drawn)
1160 | CCOc1ccc(-c2noc(Cc3nnc(-c4cccc(Br)c4)o3)n2)cc1
1090 | O=S(=O)(c1ccc(F)c(F)c1)N1CCc2nc(-c3ccccc3)ncc2C1
612 | CCn1c(=O)c(SCC(=O)N2CCN(c3ccccn3)CC2)nc2ccccc21
873 | CC1=C(c2ccccc2)S(=O)(=O)N=C1N1CCCN(C(=O)C(C)c2ccccc2)CC1 (stereo not drawn)
1090 | COc1nn(C)cc1C(=O)Nc1nc(-c2ccc3c(c2)CCCC3)cs1

RP-LC retention time [s] | SMILES
936 | CCCn1c(-c2cccc(C(=O)NCc3cccc(C(F)(F)F)c3)c2)nc2cccnc21
754 | Cc1cccc(NC(=O)C2CCCN(c3nnc(C)c4c(C)n(-c5ccccc5)nc34)C2)c1C (stereo not drawn)
586 | CCN(CC)C(C(=O)NC1CCCC1)c1cc2c(cc1[N+](=O)[O-])OCO2 (stereo not drawn)
981 | O=C(c1nnn(Cc2ccc(Cl)cc2)c1-n1cccc1)N1CCSCC1
695 | Cc1cccc(NS(=O)(=O)c2cc3n(c2)CCCN(C)C3=O)c1
1030 | CC1CCN(c2nn(CC(=O)NCc3cccs3)c(=O)c3ccccc23)CC1
1140 | CCC(C)NC(=O)Cn1cnc2nc(N3CCC(C(=O)NC4CC4)CC3)sc2c1=O (stereo not drawn)
922 | CC(C)NC(=O)c1ccc(OCC2CCN(C(=O)c3ccc(F)c(Cl)c3)CC2)cc1
809 | Cc1ccc(NC(=O)Cn2nc(N3CCOCC3)c3ccccc3c2=O)c(C)c1
720 | CN1C(=O)CCC2(CNC(=O)c3cccn3C)CCC=C12 (stereo not drawn)
651 | CC(=O)NS(=O)(=O)c1ccc(NC(=O)NC2CC(=O)N(c3ccc(C)cc3)C2)cc1 (stereo not drawn)
758 | CCNC(=O)c1ccc(-n2nc(C)c(C)c2C)nc1
561 | O=C(NCc1ccc(N2CCCCC2)cc1)c1ccc2ncnc(N3CCCC3)c2c1
716 | CCN1CCn2cc(S(=O)(=O)NCc3ccc(C)cc3)cc2C1=O
562 | O=C1CC[C@@H](C(=O)N2CSC[C@H]2C(=O)O)N1
872 | Cc1cc(Cl)ccc1S(=O)(=O)N1CCn2c(nn(CC3CC3)c2=O)C1
663 | Cc1ccc(CNC(=O)CC2CCOCC2)o1
687 | Cn1nnc2c(N3CCN(C(=O)c4c(F)cccc4Cl)CC3)ncnc21
1030 | CCN(CC)S(=O)(=O)c1cc(-c2nnc(-c3ccccc3OC)o2)ccc1C
859 | COc1ccc2[nH]cc(CCNC(=O)CN3C(=O)CSc4cccn4-c4ccccc43)c2c1
849 | Cc1ccc(Nc2c(-c3ccc(C)cc3)nc3ccc(Br)cn23)cc1
711 | O=C(Cn1c(=O)c2cc(C3CC3)nn2c2ncccc21)NCc1cccs1

RP-LC retention time [s] | SMILES
740 | O=C1CC(C(=O)N2CCN(Cc3ccccc3)CC2)CN1CCc1ccccc1 (stereo not drawn)
697 | Cc1nnc(-c2cc(NS(C)(=O)=O)c(C)s2)o1
827 | Cc1ccccc1CNC(=O)C1c2ccccc2CC(=O)N1C(C)C (stereo not drawn)
644 | CNCc1ccc(-c2ccc(F)c(Cl)c2)o1
1170 | CCOc1ccccc1-c1noc(Cn2cnc3c(cnn3-c3ccc(CC)cc3)c2=O)n1
934 | O=C(Cn1cccc1-c1nc(-c2ccccc2)cs1)N1CCOCC1
982 | COc1cccc(NC(=O)Cn2cnc3c(sc4nc(-c5ccccc5)ccc43)c2=O)c1
531 | Cc1ccc(N2CCN(C(=O)C(C)(C)C)CC2)nn1
924 | CCC(C(=O)NCCc1ccc(Cl)cc1)n1cnc2oc(C)c(C)c2c1=O (stereo not drawn)
979 | Cn1nc(-c2nnc(-c3ccccc3)o2)c2c1CCN(S(=O)(=O)c1ccc(F)c(Cl)c1)C2
570 | OC1(c2ccccn2)CCOC2(CCN(Cc3ccc(F)cc3Cl)CC2)C1 (stereo not drawn)
703 | COc1ccc(C2(C(=O)N3CCCN(Cc4noc(-c5ccccc5)n4)CC3)CC2)cc1
1130 | CC(C)(C)C(=O)N1CCCC(c2ccnc(-c3cccc(F)c3)n2)C1 (stereo not drawn)
1050 | Cc1ccc2ncn(C3CCN(S(=O)(=O)c4ccc(C(C)C)cc4)CC3)c(=O)c2c1
998 | Cc1nc(-c2cn(C)c3ncccc23)sc1C(=O)NCc1ccccc1C(F)(F)F
624 | CCN(Cc1ccccc1)C(=O)Cn1cnc(C)cc1=O
1040 | CCC(C)NC(=O)NC1CCN(c2nc3cccnc3n(Cc3ccc(C)cc3)c2=O)CC1 (stereo not drawn)
743 | Cc1nn2c(CNC(=O)C3CCC3)c(-c3ccccc3)nc2s1
1140 | Cc1cccc(-c2noc(-c3nn(CC(=O)NCc4cccs4)c4ccccc34)n2)c1
797 | CN(Cc1ccoc1)C(=O)Nc1ccc(F)cc1

SMILES | RP-LC retention time [s]
Cc1nc(-c2csc(S(=O)(=O)N3CCC(C(=O)N4CCC5(CC4)OCCO5)CC3)c2)no1 | 765
CN(C(=O)Cc1ccc(Cl)c(Cl)c1)[C@@H](CN1CCCC1)c1ccccc1 | 718
